The results in this text go back to patent US9226500B2, “Pesticidal compositions and processes related thereto” (Dow AgroSciences LLC, priority 2012, dated 2016).

Experiment [1] has as its system Cabbage Looper (Trichoplusia ni). Kind of experiment: Bioassay on Cabbage Looper (CL), 128-well diet tray assay. The class given is in vivo. The note with it: 168 h, percent mortality of second instar larvae, 50 μg/cm^2 on artificial diet, five to seven days, 25° C., read-out: CL Rating. The method, then: Certain molecules disclosed in this document were tested against BAW, CEW and CL using procedures described in the following examples. In the reporting of the results, the “BAW & CEW & CL Rating Table” was used (See Table Section).
Bioassays on CL (Trichoplusia ni)
Bioassays on CL were conducted using a 128-well diet tray assay. One to five second instar CL larvae were placed in each well (3 mL) of the diet tray that had been previously filled with 1 mL of artificial diet to which 50 μg/cm^2 of the test compound (dissolved in 50 μL of 90:10 acetone-water mixture) had been applied (to each of eight wells) and then allowed to dry. Trays were covered with a clear self-adhesive cover, and held at 25° C., 14:10 light-dark for five to seven days. Percent mortality was recorded for the larvae in each well; activity in the eight wells was then averaged.
“Table 4: Assay Results Part 2” (See Table Section).

The test system of experiment [2] is Beet Armyworm (Spodoptera exigua). Description: Bioassay on Beet Armyworm (BAW), 128-well diet tray assay. The note with it: for pest or weed control at 50 µg/cm2, 50 µg/cm2: Spodoptera exigua, 168 h, percent mortality of second instar larvae, 50 μg/cm^2 on artificial diet, five to seven days, 25° C., read-out: BAW Rating; for BAW Rating: Table 3, Assays Results Part 1. It counts as in vivo.

Regarding `C[C@@H](NC(=O)c1ccc(/C=C/C(c2cc(Cl)c(Cl)c(Cl)c2)C(F)(F)F)cc1C(F)(F)F)C(=O)NCC(F)(F)F` (mixture of isomers) [Compound F20], the pest or weed control at 50 µg/cm2, 50 µg/cm2 in experiment [1] and in experiment [2] was 50 to 100% in each case.
Consider `CC(C)(NC(=O)c1ccc(/C=C/C(c2cc(Cl)c(Cl)c(Cl)c2)C(F)(F)F)cc1Cl)C(=O)NCC(F)(F)F` (centres unmarked) [Compound F2], for which the pest or weed control at 50 µg/cm2, 50 µg/cm2 in experiment [1] and in experiment [2] was 50 to 100% each time.
As to `Cc1cc(/C=C/C(c2cc(Cl)c(Cl)c(Cl)c2)C(F)(F)F)ccc1C(=O)NC(C)(C)C(=O)NCC(F)(F)F` (centres unmarked) [Compound F3], the pest or weed control at 50 µg/cm2, 50 µg/cm2 in experiment [1] and in experiment [2] was 50 to 100% throughout.
`CC(C)(NC(=O)c1ccc(/C=C/C(c2cc(Cl)c(Cl)c(Cl)c2)C(F)(F)F)cc1C(F)(F)F)C(=O)NCC(F)(F)F` (centres unmarked) [Compound F4]: the pest or weed control at 50 µg/cm2, 50 µg/cm2 in experiment [1] and in experiment [2] was 50 to 100% throughout.
`C[C@H](NC(=O)c1ccc(/C=C/C(c2cc(Cl)c(Cl)c(Cl)c2)C(F)(F)F)cc1Br)C(=O)NCC(F)(F)F` (some centres unmarked) [Compound F5]: the pest or weed control at 50 µg/cm2, 50 µg/cm2 in experiment [1] and in experiment [2] was 50 to 100% each time.
Take `C[C@@H](NC(=O)c1ccc(/C=C/C(c2cc(Cl)c(Cl)c(Cl)c2)C(F)(F)F)cc1Br)C(=O)NCC(F)(F)F` (some centres unmarked) [Compound F6]: the pest or weed control at 50 µg/cm2, 50 µg/cm2 in experiment [1] and in experiment [2] was 50 to 100% throughout.
For the compound `Cc1cc(/C=C/C(c2cc(Cl)c(Cl)c(Cl)c2)C(F)(F)F)ccc1C(=O)N[C@H](C)C(=O)NCC(F)(F)F` (some centres unmarked) [Compound F7], the pest or weed control at 50 µg/cm2, 50 µg/cm2 in experiment [1] and in experiment [2] was 50 to 100% each time.
In the case of `CCC(NC(=O)c1ccc(/C=C/C(c2cc(Cl)c(Cl)c(Cl)c2)C(F)(F)F)cc1Br)C(=O)NCC(F)(F)F` (centres unmarked) [Compound F8A], the pest or weed control at 50 µg/cm2, 50 µg/cm2 in experiment [1] and in experiment [2] was 50 to 100% in each case.
`CC[C@H](NC(=O)c1ccc(/C=C/C(c2cc(Cl)c(Cl)c(Cl)c2)C(F)(F)F)cc1Br)C(=O)NCC(F)(F)F` (some centres unmarked) [Compound F8]: the pest or weed control at 50 µg/cm2, 50 µg/cm2 in experiment [1] and in experiment [2] was 50 to 100% throughout.
Turning to `Cc1cc(/C=C/C(c2cc(Cl)c(Cl)c(Cl)c2)C(F)(F)F)ccc1C(=O)N[C@@H](C)C(=O)NCC(F)(F)F` (some centres unmarked) [Compound F9], the pest or weed control at 50 µg/cm2, 50 µg/cm2 in experiment [1] and in experiment [2] was 50 to 100% each time.
For `C[C@@H](NC(=O)c1ccc(/C=C/C(c2cc(C(F)(F)F)cc(C(F)(F)F)c2)C(F)(F)F)cc1Br)C(=O)NCC(F)(F)F` (some centres unmarked) [Compound F14], the pest or weed control at 50 µg/cm2, 50 µg/cm2 in experiment [1] and in experiment [2] was 50 to 100% throughout.
Turning to `CCC(NC(=O)c1ccc(/C=C/C(c2cc(Cl)c(Cl)c(Cl)c2)C(F)(F)F)cc1C)C(=O)NCC(F)(F)F` (centres unmarked) [Compound F15A], the pest or weed control at 50 µg/cm2, 50 µg/cm2 in experiment [1] and in experiment [2] was 50 to 100% each time.
With `CC[C@H](NC(=O)c1ccc(/C=C/C(c2cc(Cl)c(Cl)c(Cl)c2)C(F)(F)F)cc1C)C(=O)NCC(F)(F)F` (some centres unmarked) [Compound F15], the pest or weed control at 50 µg/cm2, 50 µg/cm2 in experiment [1] and in experiment [2] was 50 to 100% each time.
Turning to `CCC(NC(=O)c1ccc(/C=C/C(c2cc(Cl)c(Cl)c(Cl)c2)C(F)(F)F)cc1C(F)(F)F)C(=O)NCC(F)(F)F` (centres unmarked) [Compound F16A], the pest or weed control at 50 µg/cm2, 50 µg/cm2 in experiment [1] and in experiment [2] was 50 to 100% throughout.
As to `CC[C@H](NC(=O)c1ccc(/C=C/C(c2cc(Cl)c(Cl)c(Cl)c2)C(F)(F)F)cc1C(F)(F)F)C(=O)NCC(F)(F)F` (some centres unmarked) [Compound F16], the pest or weed control at 50 µg/cm2, 50 µg/cm2 in experiment [1] and in experiment [2] was 50 to 100% in each case.
With `Cc1cc(/C=C/C(c2cc(Br)cc(Br)c2)C(F)(F)F)ccc1C(=O)N[C@H](C)C(=O)NCC(F)(F)F` (some centres unmarked) [Compound F17], the pest or weed control at 50 µg/cm2, 50 µg/cm2 in experiment [1] and in experiment [2] was 50 to 100% in each case.
In the case of `C[C@H](NC(=O)c1ccc(/C=C/C(c2cc(Cl)c(Cl)c(Cl)c2)C(F)(F)F)cc1C(F)(F)F)C(=O)NCC(F)(F)F` (some centres unmarked) [Compound F18], the pest or weed control at 50 µg/cm2, 50 µg/cm2 in experiment [1] and in experiment [2] was 50 to 100% each time.
`C[C@@H](NC(=O)c1ccc(/C=C/C(c2cc(Br)cc(Br)c2)C(F)(F)F)cc1Br)C(=O)NCC(F)(F)F` (some centres unmarked) [Compound F19]: the pest or weed control at 50 µg/cm2, 50 µg/cm2 in experiment [1] and in experiment [2] was 50 to 100% throughout.
As to `C[C@@H](NC(=O)c1ccc(/C=C/[C@@H](c2cc(Cl)c(Cl)c(Cl)c2)C(F)(F)F)cc1C(F)(F)F)C(=O)NCC(F)(F)F` [Compound F20B, N—((R)-1-Oxo-1-((2,2,2-trifluoroethyl)amino)propan-2-yl)-4-((E)-4,4,4-trifluoro-3-(3,4,5-trichlorophenyl)but-1-en-1-yl)-2-(trifluoromethyl)benzamide], the pest or weed control at 50 µg/cm2, 50 µg/cm2 in experiment [1] and in experiment [2] was 50 to 100% in each case.
Consider `C[C@@H](NC(=O)c1ccc(/C=C\C(c2cc(Cl)c(Cl)c(Cl)c2)C(F)(F)F)cc1C(F)(F)F)C(=O)NCC(F)(F)F` (some centres unmarked) [Compound F20C], for which the pest or weed control at 50 µg/cm2, 50 µg/cm2 in experiment [1] and in experiment [2] was 50 to 100% each time.
Consider `C[C@@H](NC(=O)c1ccc(/C=C/C(c2cc(Br)cc(Br)c2)C(F)(F)F)cc1C(F)(F)F)C(=O)NCC(F)(F)F` (some centres unmarked) [Compound F21], for which the pest or weed control at 50 µg/cm2, 50 µg/cm2 in experiment [1] and in experiment [2] was 50 to 100% in each case.
As to `C[C@@H](NC(=O)c1ccc(/C=C/C(c2cccc(C(F)(F)F)c2)C(F)(F)F)cc1Br)C(=O)NCC(F)(F)F` (some centres unmarked) [Compound F22], the pest or weed control at 50 µg/cm2, 50 µg/cm2 in experiment [1] and in experiment [2] was 50 to 100% in each case.
`CCC(NC(=O)c1ccc(/C=C/C(c2cc(Cl)c(Cl)c(Cl)c2)C(F)(F)F)cc1Cl)C(=O)NCC(F)(F)F` (centres unmarked) [Compound F23A]: the pest or weed control at 50 µg/cm2, 50 µg/cm2 in experiment [1] and in experiment [2] was 50 to 100% each time.
`CC[C@H](NC(=O)c1ccc(/C=C/C(c2cc(Cl)c(Cl)c(Cl)c2)C(F)(F)F)cc1Cl)C(=O)NCC(F)(F)F` (some centres unmarked) [Compound F23]: the pest or weed control at 50 µg/cm2, 50 µg/cm2 in experiment [1] lay within 50 to 100%.
As to `C[C@@H](NC(=O)c1ccc(/C=C/C(c2cc(F)cc(C(F)(F)F)c2)C(F)(F)F)cc1Br)C(=O)NCC(F)(F)F` (some centres unmarked) [Compound F24], the pest or weed control at 50 µg/cm2, 50 µg/cm2 in experiment [1] and in experiment [2] was 50 to 100% in each case.
In the case of `C[C@@H](NC(=O)c1ccc(/C=C/C(c2cc(Cl)c(Cl)c(Cl)c2)C(F)(F)F)cc1Cl)C(=O)NCC(F)(F)F` (some centres unmarked) [Compound F25], the pest or weed control at 50 µg/cm2, 50 µg/cm2 in experiment [1] and in experiment [2] was 50 to 100% in each case.
`Cc1cc(/C=C/C(c2cc(Cl)c(Cl)c(Cl)c2)C(F)(F)F)ccc1C(=O)N[C@H](C)C(=S)NCC(F)(F)F` (some centres unmarked) [Compound F26]: the pest or weed control at 50 µg/cm2, 50 µg/cm2 in experiment [1] and in experiment [2] was 50 to 100% in each case.
`C[C@@H](NC(=O)c1ccc(/C=C/C(c2cc(Cl)c(Cl)c(Cl)c2)C(F)(F)F)cc1Br)C(=S)NCC(F)(F)F` (some centres unmarked) [Compound F27]: the pest or weed control at 50 µg/cm2, 50 µg/cm2 in experiment [1] and in experiment [2] was 50 to 100% in each case.
`C[C@@H](NC(=O)c1ccc(/C=C/C(c2cc(Cl)c(Cl)c(Cl)c2)C(F)(F)F)cc1C(F)(F)F)C(=S)NCC(F)(F)F` (some centres unmarked) [Compound F28]: the pest or weed control at 50 µg/cm2, 50 µg/cm2 in experiment [1] and in experiment [2] was 50 to 100% throughout.
`Cc1cc(/C=C/C(c2cc(Cl)c(Cl)c(Cl)c2)C(F)(F)F)ccc1C(=O)NC(C)(C)C(=S)NCC(F)(F)F` (centres unmarked) [Compound F29]: the pest or weed control at 50 µg/cm2, 50 µg/cm2 in experiment [1] and in experiment [2] was 50 to 100% in each case.
Turning to `C[C@@H](NC(=O)c1ccc(/C=C/C(c2cc(Cl)c(Cl)c(Cl)c2)C(F)(F)F)cc1Cl)C(=S)NCC(F)(F)F` (some centres unmarked) [Compound F30], the pest or weed control at 50 µg/cm2, 50 µg/cm2 in experiment [1] and in experiment [2] was 50 to 100% each time.
Consider `Cc1cc(/C=C/C(c2cc(Cl)c(Cl)c(Cl)c2)C(F)(F)F)ccc1C(=S)NC(C)(C)C(=S)NCC(F)(F)F` (centres unmarked) [Compound F31, (E)-2-Methyl-N-(2-methyl-1-thioxo-1-(2,2,2-trifluoroethylamino)propan-2-yl)-4-(4,4,4-trifluoro-3-(3,4,5-trichlorophenyl)but-1-enyl)benzothioamide], for which the pest or weed control at 50 µg/cm2, 50 µg/cm2 in experiment [1] and in experiment [2] was 50 to 100% in each case.
Take `C/C(=C\C(c1cc(Cl)cc(Cl)c1)C(F)(F)F)c1ccc(-n2cncn2)cc1` (centres unmarked) [DC68, (E)-1-(4-(4-(3,5-Dichlorophenyl)-5,5,5-trifluoropent-2-en-2-yl)phenyl)-1H-1,2,4-triazole]: the “BAW Rating” value in experiment [2] is given as “A (50-100)”.
Regarding `COC(/C=C/c1ccc(-n2cncn2)cc1)(c1cc(Cl)cc(Cl)c1)C(F)(F)F` (centres unmarked) [DC70, (E)-1-(4-(3-(3,5-Dichlorophenyl)-4,4,4-trifluoro-3-methoxybut-1-en-1-yl)phenyl)-1H-1,2,4-triazole], the “BAW Rating” value in experiment [2] is recorded as “A (50-100)”.
